Patent publication US9604987B2, “Synthesis of autophagy inducing compound and the uses thereof” (Hong Kong Baptist University, priority 2012, dated 2017)

Columns and labels:
[1] = tested on: α-syn (WT, A53T, A30P) in N2a cells; assay: Clearance of over-expressed WT and mutant α-syn in N2a cells (western blot); type: cell-based, mouse
Experimental: Native and denatured PAGE and Western blotting analysis. Samples to be run under denaturing conditions were lysed with RIPA lysis buffer (150 mM NaCl, 50 mM Tris-HCl, 0.35% sodium deoxycholate, 1 mM EDTA, 1% NP40, 1 mM PMSF, 5 μg/ml aprotinin, 5 μg/ml leupeptin). Samples for native gels were lysed with detergent-free lysis buffer (50 mM Tris/HCl pH 7.4, 175 mM NaCl, 5 mM EDTA pH 8.0, 1 mM PMSF, 5 μg/ml aprotinin, 5 μg/ml leupeptin), and sheared 5 times through a 28-gauge needle followed by 2 times of sonication for 5 seconds according to previously described protocol. For denaturing, SDS-PAGE was performed using Tris-Glycine SDS running buffer and SDS sample buffer, and for native conditions, native-PAGE was run with detergent-free Tris-Glycine running buffer (BN2007, Invitrogen) and 4× native sample buffer (BN2003, Invitrogen) on a pre-casted native PAGE gel (BN1002BOX, Invitrogen). The proteins on the gels were then transferred to PVDF membrane (RPN303F, GE Healthcare) and processed for immunoblotting. Membranes were blocked with 5% non-fat milk and probed with the appropriate primary and secondary antibodies. The desired bands were visualized using the ECL kit (32106, Pierce). The band density was quantified using the ImageJ program and normalized to that of the control group.
N2a cells over-expressed in WT and α-syn mutants (A53T and A30P) and N2a cells with GFP as negative control are subjected to Cory B treatment for 24 hours. […] Data presents as the mean±SEM from 3 independent experiments (*p<0.05, one-way ANOVA for multiple comparison and Tukey's test as post hoc test).

[2] = tested on: α-syn oligomers; assay: BiFC-based cell model of α-syn oligomer clearance (flow cytometry); details: 25 μM, 24 hours
Experimental: Second, the effect of Cory B on α-syn oligomers clearance is tested using a bimolecular fluorescence complementation (BiFC)-based cell model which enables visualization of α-syn oligomers. Two non-fluorescent fragments of GFP, GFP-N terminal fraction and GFP-C terminal fraction, are fused with α-syn protein; interaction of the two fragments reconstitutes the fluorophore (FIG. 5G). The presence of fluorescence signal indicates the formation of α-syn oligomers within cells. Mock transfected cells are used as blanks to gate the fluorescence-positive cells and signals stronger than 10^1 RFU are considered as positive α-syn oligomers formation. Cells are treated with 25 μM Cory B and/or 5 mM 3-MA for 24 hours and harvested for flow cytometry analysis.

[3] = tested on: α-syn/synphilin-1 aggresomes in N2a cells; assay: α-syn/synphilin-1 aggresome formation in N2a cells; type: cell-based, mouse; details: 25 μM, 48 hours
Experimental: α-syn and synphilin-1 are co-expressed in N2a cells to mimic aggresome formation and are treated with 25 μM Cory B or 5 mM 3-MA for 48 hours. Cells are fixed in 4% paraformaldehyde and analyzed under a fluorescence microscope. […] The inhibition of Cory B clearance of various forms of α-syn and α-syn/synphilin-1 aggresomes in the presence of 3-MA further validates that such clearance is via the autophagy pathway. Data are presented as the mean±SEM from 3 independent experiments (***p<0.001, one-way ANOVA for multiple comparison and Tukey's test as post hoc test).

[4] = tested on: Beclin-1; assay: Beclin-1 expression and Beclin 1 siRNA depletion in N2a cells; type: cell-based, mouse
Experimental: FIG. 7: Western blot analysis of expression level of phosphorylated mTOR (p-mTOR) or its substrate P70S6K (p-P70S6K) in N2a cells with treatment of 25 μM Cory B or 0.2 μM rapamycin for 6 hours (FIG. 7A); western blot analysis of Beclin 1 expression in N2a cells with non-target or Beclin 1-specific siRNA treatments followed by Cory B (FIG. 7B)
To elucidate the molecular mechanism of Cory B action, the classic autophagy controlling pathway, the mTOR pathway is first examined. […] Several other pathways reported to be involved in the activation of autophagy, including AKT, AMPK, MEK/ERK, JNK, and ER stress pathways, and calcium signaling pathway (data not shown), are also tested.

[5] = tested on: JNPL P301 Tau mice; assay: JNPL P301 Tau mice treated intraperitoneally; type: in vivo; details: 20 mg/kg/d intraperitoneally, three months
Experimental: N2a Swedish APP cells are incubated with different concentration of Cory and Cory B in the presence or absence of CQ and 3MA. […] Tg2567 APP mice, 3 months old JNPL P301 Tau mice and WT mice intraperitoneally are administrated with 20 mg/kg/d CoryB.

[6] = tested on: rat primary cortical neurons; assay: LC3 immunoblot in primary cultured rat cortical neurons; type: cell-based; details: different concentrations, 24 hours
Experimental: To further confirm the pro-autophagic effect of CB6 and CB8 on primary neurons, rat primary cortical neurons isolated from E17 rats are used in the study. The primary neurons are treated with different concentrations of CB6 and CB8 respectively for 24 hours, and autophagic markers LC3 is detected by immunoblot analysis.
The E16 pregnant rat was anesthetized by intraperitoneal injection with 3% chloral hydrate in normal saline (1 ml/100 g bdw). The uterus containing embryos were dissected and transferred to a Petri dish, and then the embryos were collected on a new petri dish containing ice cold PBS. The brains of the embryos were then dissected under stereoscope and the cortices of the brains were placed in a Petri dish containing ice cold 10% FBS DMEM. The meninges of the cortices were removed carefully and then transferred to a 15 ml tube. Total 5 ml of digestion solution (1.25% Trypsin diluted with DMEM/F12 medium) were added into the tube containing meninges-free cortices and then incubated at 37° C. for 15 min. The digestion was stopped by adding 10% FBS DMEM/F12 supplemented with 10 μg/ml DNase (Sigma, DN25). […] The viable cells without staining with typan blue were then counted under microscope. […]

Row | Compound | α-syn pro-clearance activity under 3-MA and CQ ([1]; 5 mM 3-MA and 30 μM CQ) | WT and mutant α-syn levels ([1]; N2a over-expressing WT, A53T, A30P α-syn, 24 hours) | GFP levels (negative control protein) ([1]; N2a with GFP, 24 hours) | degradation of α-syn oligomers (fluorescence intensity) [2] | number of α-syn/synphilin-1 aggresomes [3] | expression of Beclin-1 [4] | Cory B-induced autophagy under Beclin-1 siRNA treatment ([4]; Beclin 1-specific siRNA) | total tau [5] | autophagy (LC3 immunoblot) [6]
1 | CC[C@@H]1CN2CC[C@]3(C(=O)Nc4ccccc43)C2C[C@@H]1C(=COC)C(=O)OC (stereo partly shown) [Cory B, Corynoxine B] | abolish pro-clearance activity | reduces WT and mutant α-syn levels in a dose-dependent manner | does not reduce GFP levels | promotes degradation of α-syn oligomers | dramatically decreases the number of α-syn/synphilin-1 aggresomes | does not affect the expression of Beclin-1 | completely blocks | significantly decrease | 
2 | C=CCN1C(=O)[C@]2(CCN3C[C@@H](CC)[C@@H](/C(=C\OC)C(=O)OC)C[C@H]32)c2ccccc21 [CB8] |  |  |  |  |  |  |  |  | induced autophagy
3 | CCCN1C(=O)[C@]2(CCN3C[C@@H](CC)[C@@H](/C(=C\OC)C(=O)OC)C[C@H]32)c2ccccc21 [CB6] |  |  |  |  |  |  |  |  | induced autophagy
